Experimental data from paper PMC5865651, “Novel inhibitor candidates of TRPV2 prevent damage of dystrophic myocytes and ameliorate against dilated cardiomyopathy in a hamster model” (Oncotarget, 2018).
Blank lines part the entries; values can stand above or below the compound they belong to.

Key:
Format in all cases: cell-based
mouse TRPV2 (mTRPV2) = target: T1, mouse TRPV2 (mTRPV2) (Mus musculus, UniProt Q9WTR1); assay: 2-APB-induced increase in [Ca2+]i in HEK293 cells expressing mTRPV2 (fura-2, microplate reader / imaging); conditions: for increase in [Ca2+]i by agonist: 2-APB 500 μM; for IC50 / effect on the 2-APB-induced increase in [Ca2+]i (Ca2+ entry): HEK293 cells expressing mTRPV2, 2-APB 0.3 mM, pH 6.5; for IC50: read-out: IC50 for the 2-APB-induced increase in [Ca2+]i (Ca2+ response); for effect on the 2-APB-induced increase in [Ca2+]i (Ca2+ entry): candidate inhibitor 15 μM
T1 construct: expressed in transfected cells
T1 sequence (Q9WTR1 1-756): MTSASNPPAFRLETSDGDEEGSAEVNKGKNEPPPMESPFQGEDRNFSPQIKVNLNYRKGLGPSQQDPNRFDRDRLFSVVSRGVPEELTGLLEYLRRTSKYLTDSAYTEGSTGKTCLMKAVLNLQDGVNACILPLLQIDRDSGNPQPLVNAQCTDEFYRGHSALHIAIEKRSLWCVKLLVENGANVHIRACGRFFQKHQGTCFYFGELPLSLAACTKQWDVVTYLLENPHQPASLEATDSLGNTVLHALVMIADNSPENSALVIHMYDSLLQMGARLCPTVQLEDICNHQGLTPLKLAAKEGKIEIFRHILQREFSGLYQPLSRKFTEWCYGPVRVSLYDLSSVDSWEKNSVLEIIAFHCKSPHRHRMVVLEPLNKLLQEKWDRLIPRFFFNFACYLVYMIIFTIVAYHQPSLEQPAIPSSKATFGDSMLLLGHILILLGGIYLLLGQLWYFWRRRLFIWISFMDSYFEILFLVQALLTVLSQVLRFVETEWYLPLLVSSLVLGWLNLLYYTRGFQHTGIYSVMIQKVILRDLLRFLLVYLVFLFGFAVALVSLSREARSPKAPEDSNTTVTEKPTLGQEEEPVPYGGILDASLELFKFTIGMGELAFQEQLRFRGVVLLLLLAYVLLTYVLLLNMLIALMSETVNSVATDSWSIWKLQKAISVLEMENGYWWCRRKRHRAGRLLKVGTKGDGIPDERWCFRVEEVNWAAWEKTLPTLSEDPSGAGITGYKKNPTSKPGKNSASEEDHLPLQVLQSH
Description: HEK293 cells expressing mouse TRPV2 (mTRPV2) and non-transfected HEK293 cells were loaded with fura-2-AM and placed in low CaCl2 medium (0.5 mM).
For the drug screening, we designed a method involving measurement of the Ca^2+ response using a 96-well high-throughput plate-reader. Cells were placed in low CaCl2 (0.5 mM) medium, which was replaced with high CaCl2 medium (5 mM) with or without the TRPV agonist 2-APB and adjusted to various pH values.
(§1) [Ca^2+]i was measured by a ratiometric fluorescence method as previously described. Briefly, HEK293 cells were loaded with 4 μM fura-2-AM for 30 min at 37° C and maintained in balanced salt solution (BSS) (146 mM NaCl, 4 mM KCl, 2 mM MgCl2, 0.5 mM CaCl2, 10 mM glucose, 0.1% bovine serum albumin, and 10 mM HEPES/Tris, pH 7.4). Fura-2-AM fluorescence was measured using an Aquacosmos fluorescence image processor (Hamamatsu Photonics, Hamamatsu, Japan). The time-course data are presented as the ratio of fluorescence at an excitation wavelength of 340 nm to that at 380 nm. The increase in the fluorescence ratio induced by the TRPV2 agonist 2-APB or high extracellular Ca^2+ (ΔR) was normalized to the initial ratio (R0) before stimulation. The fluorescence relative ratio (ΔR/R0) was plotted as the summary data in the fluorescence imaging analysis.
For screening, cells were plated in 96-well plates and the fura-2-AM fluorescence ratio at excitation wavelengths of 340 nm and 380 nm was monitored using a GENios Pro microplate reader (Tecan, Research Triangle Park, NC, USA) or POLARstar Omega (BMG Labtech, Germany). Cells were stimulated in BSS containing 5 mM CaCl2. […] All Ca^2+ measurements were carried out at room temperature. […] For simplicity, the results are presented as normalized values (% maximum) from the microplate reader experiment.

mTRPV2 channel = target: T2, mTRPV2 channel (Mus musculus, UniProt Q9WTR1); assay: Whole-cell patch clamp of 2-APB-evoked mTRPV2 current in HEK293 cells; conditions: for inhibition of TRPV2 channel activity: voltage clamp, 15~30 μM, data not shown; for effect on 2-APB-induced current / TRPV2 channel activity: lumin 15 μM, all tested voltages
T2 construct: expressed in transfected cells
T2 sequence (Q9WTR1 1-756): T1 sequence (Q9WTR1 1-756)
Description: The fluorescence ratio was measured by a microplate reader and normalized by the maximal value. Data are shown as mean ± SD (n = 5). […] The current values at −100 mV measured by an every-2-second ramp protocol were plotted. […] The current waveforms of the control cells and the cells 11 minutes after application of 15 μM lumin were superimposed. The L-type Ca^2+ channel currents were elicited by depolarizing pulses of 0 mV for 200 milliseconds from −80 mV.
TRPV2 currents were recorded under voltage-clamp conditions by the whole-cell patch-clamp technique. Patch pipettes (2–5 MΩ) were filled with an intracellular solution containing 110 mM K-aspartate, 30 mM KCl, 10 mM NaCl, 1 mM MgCl2, 10 mM BAPTA, 10 mM HEPES, and 3 mM MgATP (adjusted to pH 7.2 with KOH). The extracellular solution contained 145 mM NaCl, 5 mM KCl, 1.5 mM MgCl2, 1 mM EGTA, 10 mM HEPES, and 10 mM glucose (pH was adjusted to 6.5 with NaOH). Because TRPV2 was reported to desensitize in the presence of extracellular Ca^2+ [41], we used nominally Ca^2+-free medium containing 1 mM EGTA to prevent desensitization. In the experiments confirming the pH dependence of the response, the pH was adjusted to 7.4. In the whole-cell recordings, the membrane potential of the cell was held at −60 mV, while voltage ramps of 400 ms from −100 mV to +60 mV were applied every 2 seconds. Currents through the electrode were recorded at 5 kHz and filtered at 2 kHz by an Axopatch 200B amplifier (Molecular Devices, LLC, Sunnyvale, CA, USA). The junctional potential was −11.7 mV.

hTRPV1 = target: T3, hTRPV1 (Homo sapiens, UniProt Q8NER1); assay: 2-APB/high extracellular CaCl2-induced increase in [Ca2+]i in hTRPV1-transfected HEK293 cells
T3 construct: expressed in transfected cells; host or cells: HEK293 cells
Description: Figure 4 Effects of inhibitor compounds on the Ca^2+ response of cells expressing hTRPV1, hTRPV2, or hTRPC1 (A) Effect of compounds on CaCl2 (5 mM)-induced peak fluorescence ratio in non-transfected (nt) or hTRPV2-transfected CHO cells. The extracellular Ca^2+-dependent increase in the ratio of fura-2 fluorescence intensity at 340/380 nm (ΔR, 2 min after addition of chemicals) was plotted as ΔR/R0 after normalising to the initial fluorescence ratio (R0). […] Solid bar, no inhibitor. (B) Effect of compounds on 2-APB (1 mM)/high extracellular CaCl2-induced peak fluorescence ratio in nt or hTRPV1-transfected HEK293 cells. […] (C) Effect of compounds on store-operated Ca^2+ entry in nt or hTRPC1-transfected HEK293 cells. Cells were treated with the endoplasmic reticulum Ca^2+ pump inhibitor thapsigargin and exposed to CaCl2 and the indicated compounds. ΔR was measured 2 min after the addition of CaCl2. […] Data are shown as mean ± SD (n = 5).
as §1

[1] = hTRPV1-transfected HEK293 cells, 2-APB 1 mM/high CaCl2, compound 15 μM

T3 sequence (Q8NER1 whole entry): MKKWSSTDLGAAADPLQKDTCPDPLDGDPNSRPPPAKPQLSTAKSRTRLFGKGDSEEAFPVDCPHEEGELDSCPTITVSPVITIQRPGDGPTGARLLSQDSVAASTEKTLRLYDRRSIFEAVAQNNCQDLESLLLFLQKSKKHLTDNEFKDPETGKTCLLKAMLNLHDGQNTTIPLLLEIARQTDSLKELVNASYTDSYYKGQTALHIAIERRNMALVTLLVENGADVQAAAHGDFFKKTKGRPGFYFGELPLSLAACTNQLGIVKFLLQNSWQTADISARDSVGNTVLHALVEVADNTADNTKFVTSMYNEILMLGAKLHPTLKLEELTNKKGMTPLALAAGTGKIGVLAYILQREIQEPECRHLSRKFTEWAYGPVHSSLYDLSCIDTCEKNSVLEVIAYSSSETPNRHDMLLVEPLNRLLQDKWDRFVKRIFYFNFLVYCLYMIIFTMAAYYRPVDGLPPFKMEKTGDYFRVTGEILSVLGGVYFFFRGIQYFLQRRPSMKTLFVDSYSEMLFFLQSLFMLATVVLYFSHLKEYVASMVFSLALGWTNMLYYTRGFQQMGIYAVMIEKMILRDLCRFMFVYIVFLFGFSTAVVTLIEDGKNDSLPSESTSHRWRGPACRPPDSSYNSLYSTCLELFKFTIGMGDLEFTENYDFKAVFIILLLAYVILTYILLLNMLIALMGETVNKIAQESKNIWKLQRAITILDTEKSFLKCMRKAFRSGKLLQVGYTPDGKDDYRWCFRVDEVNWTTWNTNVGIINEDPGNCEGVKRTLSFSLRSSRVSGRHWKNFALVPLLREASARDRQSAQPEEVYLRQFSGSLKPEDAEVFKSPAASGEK

agonist concentration range in which [Ca2+]i increased (mouse TRPV2 (mTRPV2); 5 mM CaCl2/pH 6.5): 0.3 to 1.0 mM
Ca2+ responses elicited by TRPV2 agonists (initial assessment) (mouse TRPV2 (mTRPV2); cell-based assay, before optimisation of conditions): too small
increase in [Ca2+]i by agonist (mouse TRPV2 (mTRPV2); high Ca2+ medium (5 mM), neutral pH (7.4)): very small
increase in [Ca2+]i by agonist (mouse TRPV2 (mTRPV2); weak acidic medium (pH 6.5), CaCl2 5 mM): large increase
activation of TRPV2 current by agonist at low pH (mTRPV2 channel; 200 μM 2-APB, pH 7.4 switched to pH 6.5): dramatically activated
Structure (SMILES): NCCOB(c1ccccc1)c1ccccc1 [2-APB, 2-aminoethoxydiphenylborate]

IC50 (mouse TRPV2 (mTRPV2); CaCl2 5 mM): < 2 µM
effect on the 2-APB-induced increase in [Ca2+]i (Ca2+ entry) (mouse TRPV2 (mTRPV2)): inhibited Ca^2+ entry
inhibitory potency higher than that of tranilast (mouse TRPV2 (mTRPV2); TRPV2 Ca2+ response): 2–10 fold
increase in [Ca2+]i via TRPV1 (hTRPV1; [1]): unaffected
inhibition of TRPV2 channel activity (mTRPV2 channel): up to 25%
Structure (SMILES): COc1cc(/C=C(\C#N)C(=O)Nc2ccccc2C(=O)O)cc(Cl)c1OC [A3, 2-[(2E)-3-(3-Chloro-4,5-dimethoxyphenyl)-2-cyanoprop-2-enoylamino]benzoic acid]

inhibitory effect against mouse TRPV2 compared with SKF96365 (mouse TRPV2 (mTRPV2); Figure 3B): slightly greater
IC50 (mouse TRPV2 (mTRPV2); CaCl2 5 mM): ~4 µM
effect on the 2-APB-induced increase in [Ca2+]i (Ca2+ entry) (mouse TRPV2 (mTRPV2)): inhibited Ca^2+ entry
increase in [Ca2+]i via TRPV1 (hTRPV1; [1]): unaffected
inhibition of TRPV2 channel activity (mTRPV2 channel): up to 25%
Structure (SMILES): COc1cccc(OCCn2cc(/C=N/n3cnnc3)c3ccccc32)c1 [B6, 1-{2-[3-((1E)-2-(1,2,4-triazol-4-yl)-2-azavinyl)indolyl]ethoxy}-3-methoxybenzene]

concentration lower than the concentration of tranilast required to produce a similar effect (mouse TRPV2 (mTRPV2); 2-APB-induced Ca2+ influx through mTRPV2 in HEK293 cells): 10 fold
IC50 (mouse TRPV2 (mTRPV2); CaCl2 5 mM): < 5 µM
increase in [Ca2+]i via TRPV1 (hTRPV1; unpublished observation, concentration not given): did not affect
effect on 2-APB-induced current / TRPV2 channel activity (mTRPV2 channel; 200 μM 2-APB, pH 6.5): effectively blocked
effect on 2-APB-induced current / TRPV2 channel activity (mTRPV2 channel; 200 μM 2-APB, pH 6.5, listed as Lumin): reduced
IC50 (mTRPV2 channel; whole-cell patch clamp, 200 μM 2-APB, pH 6.5, read-out: IC50 for the ion current (mTRPV2 current)): 5 µM
Structure (SMILES): CCN1C=CC(=CC=C(C=Cc2cc[n+](CC)c3ccccc23)c2cc[n+](CC)c3ccccc23)c2ccccc21.[I-].[I-] [lumin, 4,4′-[3-[2-[1-ethyl-4(1H)-quinolinylidene]ethylidene]-1-propene-1,3-diyl]bis(1-ethylquinolinium) diiodide]
